In ChEMBL document CHEMBL4196009, “Novel vitexin-inspired scaffold against leukemia” (Eur J Med Chem, 2018):

system: KOPN-8; experiment: Antiproliferative activity against human KOPN8 cells after 72 hrs by CelTiter-Glo assay; assay type: functional, cell-based; conditions: KOPN-8, 72 h

| SMILES | EC50 [µM] |
| --- | --- |
| COc1ccc(-c2c(Cl)c(=O)c3c(OC)cc(OC)cc3n2S(=O)(=O)c2ccc(OC)cc2)cc1 | 19.1 |
| COc1ccc(-c2cc(=O)c3c(OC)cc(OC)cc3n2S(=O)(=O)c2ccc(Br)s2)cc1 | > 48.3 |
| COc1ccc(-c2cc(=O)c3c(OC)cc(OC)cc3n2S(=O)(=O)c2ccc(C#N)cc2)cc1 | > 17.2 |
| COc1ccc(-c2cc(=O)c3c(OC)cc(OC)cc3n2S(=O)(=O)c2ccc(OC)cc2)cc1 | > 82.8 |
| COc1ccc(-c2cc(=O)c3c(OC)cc(OC)cc3n2S(=O)(=O)c2ccc(C)c([N+](=O)[O-])c2)cc1 | > 51.7 |
| COc1ccc(-c2cc(=O)c3c(OC)cc(OC)cc3n2S(=O)(=O)c2ccc(F)cc2)cc1 | > 65.5 |
| COc1cc(OC)c2c(=O)cc(C(=O)Nc3ccc(N4CCOCC4)cc3)[nH]c2c1 | > 36.8 |
| COc1ccc(-c2cc(=O)c3c(OC)cc(OC)cc3n2S(=O)(=O)c2cccc([N+](=O)[O-])c2)cc1 | > 39.7 |
| COc1ccc(-c2cc(=O)c3c(OC)cc(OC)cc3n2S(=O)(=O)c2cc(Cl)cc(Cl)c2O)cc1 | > 37.9 |
| COc1cc(OC)c2c(=O)cc(C(=O)Nc3ccc(C4CCCCC4)cc3)[nH]c2c1 | 18.4 |
| COc1ccc(-c2cc(=O)c3c(OC)cc(OC)cc3n2C)cc1 | 30 |
| COc1ccc(-c2cc(=O)c3c(OC)cc(OC)cc3n2S(=O)(=O)c2ccc(C=O)cc2)cc1 | > 34.5 |

system: SUP-B15; experiment: Antiproliferative activity against human SUP-B15 cells after 72 hrs by CelTiter-Glo assay; assay type: functional, cell-based; conditions: SUP-B15, 72 h

| SMILES | EC50 [µM] |
| --- | --- |
| COc1ccc(-c2c(Cl)c(=O)c3c(OC)cc(OC)cc3n2S(=O)(=O)c2ccc(OC)cc2)cc1 | 17.9 |
| COc1ccc(-c2cc(=O)c3c(OC)cc(OC)cc3n2S(=O)(=O)c2ccc(Br)s2)cc1 | > 48.3 |
| COc1ccc(-c2cc(=O)c3c(OC)cc(OC)cc3n2S(=O)(=O)c2ccc(C#N)cc2)cc1 | 7.9 |
| COc1ccc(-c2cc(=O)c3c(OC)cc(OC)cc3n2S(=O)(=O)c2ccc(OC)cc2)cc1 | > 82.8 |
| COc1ccc(-c2cc(=O)c3c(OC)cc(OC)cc3n2S(=O)(=O)c2ccc(C)c([N+](=O)[O-])c2)cc1 | > 51.7 |
| COc1ccc(-c2cc(=O)c3c(OC)cc(OC)cc3n2S(=O)(=O)c2ccc(F)cc2)cc1 | > 65.5 |
| COc1cc(OC)c2c(=O)cc(C(=O)Nc3ccc(N4CCOCC4)cc3)[nH]c2c1 | > 36.8 |
| COc1ccc(-c2cc(=O)c3c(OC)cc(OC)cc3n2S(=O)(=O)c2cccc([N+](=O)[O-])c2)cc1 | > 39.7 |
| COc1ccc(-c2cc(=O)c3c(OC)cc(OC)cc3n2S(=O)(=O)c2cc(Cl)cc(Cl)c2O)cc1 | > 37.9 |
| COc1cc(OC)c2c(=O)cc(C(=O)Nc3ccc(C4CCCCC4)cc3)[nH]c2c1 | > 43.1 |
| COc1ccc(-c2cc(=O)c3c(OC)cc(OC)cc3n2C)cc1 | 28 |
| COc1ccc(-c2cc(=O)c3c(OC)cc(OC)cc3n2S(=O)(=O)c2ccc(C=O)cc2)cc1 | > 34.5 |

system: HepG2; experiment: Antiproliferative activity against human HepG2 cells after 72 hrs by CelTiter-Glo assay; assay type: functional, cell-based; conditions: HepG2, 72 h

| SMILES | EC50 [µM] |
| --- | --- |
| COc1ccc(-c2cc(=O)c3c(OC)cc(OC)cc3n2S(=O)(=O)c2ccc(Br)s2)cc1 | > 48.3 |
| COc1ccc(-c2cc(=O)c3c(OC)cc(OC)cc3n2S(=O)(=O)c2ccc(C#N)cc2)cc1 | > 17.2 |
| COc1ccc(-c2cc(=O)c3c(OC)cc(OC)cc3n2S(=O)(=O)c2ccc(OC)cc2)cc1 | > 82.8 |
| COc1ccc(-c2cc(=O)c3c(OC)cc(OC)cc3n2S(=O)(=O)c2ccc(C)c([N+](=O)[O-])c2)cc1 | > 51.7 |
| COc1ccc(-c2cc(=O)c3c(OC)cc(OC)cc3n2S(=O)(=O)c2ccc(F)cc2)cc1 | > 65.5 |
| COc1cc(OC)c2c(=O)cc(C(=O)Nc3ccc(N4CCOCC4)cc3)[nH]c2c1 | > 36.8 |
| COc1ccc(-c2cc(=O)c3c(OC)cc(OC)cc3n2S(=O)(=O)c2cccc([N+](=O)[O-])c2)cc1 | > 39.7 |
| COc1ccc(-c2cc(=O)c3c(OC)cc(OC)cc3n2S(=O)(=O)c2cc(Cl)cc(Cl)c2O)cc1 | > 37.9 |
| COc1cc(OC)c2c(=O)cc(C(=O)Nc3ccc(C4CCCCC4)cc3)[nH]c2c1 | > 43.1 |
| COc1ccc(-c2cc(=O)c3c(OC)cc(OC)cc3n2S(=O)(=O)c2ccc(C=O)cc2)cc1 | > 34.5 |

system: SEM cells; experiment: Antiproliferative activity against human SEM cells after 72 hrs by CelTiter-Glo assay; assay type: functional, cell-based; conditions: not given

| SMILES | EC50 [µM] |
| --- | --- |
| COc1ccc(-c2cc(=O)c3c(OC)cc(OC)cc3n2S(=O)(=O)c2ccc(C#N)cc2)cc1 | 1.3 |
| COc1ccc(-c2cc(=O)c3c(OC)cc(OC)cc3n2C)cc1 | 26 |

system: BJ; experiment: Antiproliferative activity against human BJ cells after 72 hrs by CelTiter-Glo assay; assay type: cell-based; conditions: not given

| SMILES | EC50 [µM] |
| --- | --- |
| COc1ccc(-c2c(Cl)c(=O)c3c(OC)cc(OC)cc3n2S(=O)(=O)c2ccc(OC)cc2)cc1 | 90 |
| COc1ccc(-c2cc(=O)c3c(OC)cc(OC)cc3n2S(=O)(=O)c2ccc(Br)s2)cc1 | > 48.3 |
| COc1ccc(-c2cc(=O)c3c(OC)cc(OC)cc3n2S(=O)(=O)c2ccc(C#N)cc2)cc1 | > 17.2 |
| COc1ccc(-c2cc(=O)c3c(OC)cc(OC)cc3n2S(=O)(=O)c2ccc(OC)cc2)cc1 | > 82.8 |
| COc1ccc(-c2cc(=O)c3c(OC)cc(OC)cc3n2S(=O)(=O)c2ccc(C)c([N+](=O)[O-])c2)cc1 | > 51.7 |
| COc1ccc(-c2cc(=O)c3c(OC)cc(OC)cc3n2S(=O)(=O)c2ccc(F)cc2)cc1 | > 65.5 |
| COc1cc(OC)c2c(=O)cc(C(=O)Nc3ccc(N4CCOCC4)cc3)[nH]c2c1 | > 36.8 |
| COc1ccc(-c2cc(=O)c3c(OC)cc(OC)cc3n2S(=O)(=O)c2cccc([N+](=O)[O-])c2)cc1 | > 39.7 |
| COc1ccc(-c2cc(=O)c3c(OC)cc(OC)cc3n2S(=O)(=O)c2cc(Cl)cc(Cl)c2O)cc1 | > 37.9 |
| COc1cc(OC)c2c(=O)cc(C(=O)Nc3ccc(C4CCCCC4)cc3)[nH]c2c1 | 36.2 |
| COc1ccc(-c2cc(=O)c3c(OC)cc(OC)cc3n2C)cc1 | 68 |
| COc1ccc(-c2cc(=O)c3c(OC)cc(OC)cc3n2S(=O)(=O)c2ccc(C=O)cc2)cc1 | > 34.5 |
